# Experiment: Stability of cannabinoid compounds and Vitamin E components in Beverage 2 (AB Red) by LCMSMS
# Assay type: physicochemical
structure (smiles),measurement,setting,value
"CCCCCc1cc2c(c(O)c1C(=O)O)[C@@H]1C=C(C)CC[C@H]1C(C)(C)O2 [D9 THCA, delta-9-tetrahydrocannabinolic acid]",Stability of Plant-Derived Cannabinoid Compounds in AB Red,"stored at 8° C., 0 days",1.35 µg/mL
same,Stability of Plant-Derived Cannabinoid Compounds in AB Red,"stored at 8° C., 1 days",1.34 µg/mL
same,Stability of Plant-Derived Cannabinoid Compounds in AB Red,"stored at 8° C., 2 days",1.34 µg/mL
same,Stability of Plant-Derived Cannabinoid Compounds in AB Red,"stored at 8° C., 3 days",1.35 µg/mL
same,Stability of Plant-Derived Cannabinoid Compounds in AB Red,"stored at 8° C., 5 days",1.36 µg/mL
same,Stability of Plant-Derived Cannabinoid Compounds in AB Red,"stored at 8° C., 8 days",1.35 µg/mL
same,Stability of Plant-Derived Cannabinoid Compounds in AB Red,"stored at 8° C., 9 days",1.36 µg/mL
same,Stability of Plant-Derived Cannabinoid Compounds in AB Red,"stored at 8° C., 10 days",1.35 µg/mL
same,Stability of Plant-Derived Cannabinoid Compounds in AB Red,"stored at 8° C., 11 days",1.35 µg/mL
same,Stability of Plant-Derived Cannabinoid Compounds in AB Red,"stored at 8° C., 12 days",1.32 µg/mL
same,Stability of Plant-Derived Cannabinoid Compounds in AB Red,"stored at 8° C., 15 days",1.33 µg/mL
same,Stability of Plant-Derived Cannabinoid Compounds in AB Red,"stored at 8° C., 16 days",1.31 µg/mL
same,Stability of Plant-Derived Cannabinoid Compounds in AB Red,"stored at 8° C., 17 days",1.34 µg/mL
same,Stability of Plant-Derived Cannabinoid Compounds in AB Red,"stored at 8° C., 18 days",1.35 µg/mL
same,Stability of Plant-Derived Cannabinoid Compounds in AB Red,"stored at 8° C., 19 days",1.32 µg/mL
same,Stability of Plant-Derived Cannabinoid Compounds in AB Red,"stored at 8° C., 22 days",1.34 µg/mL
same,Stability of Plant-Derived Cannabinoid Compounds in AB Red,"stored at 8° C., 23 days",1.33 µg/mL
same,Stability of Plant-Derived Cannabinoid Compounds in AB Red,"stored at 8° C., 24 days",1.33 µg/mL
same,Stability of Plant-Derived Cannabinoid Compounds in AB Red,"stored at 8° C., 25 days",1.34 µg/mL
same,Stability of Plant-Derived Cannabinoid Compounds in AB Red,"stored at 8° C., 26 days",1.33 µg/mL
same,Stability of Plant-Derived Cannabinoid Compounds in AB Red,"stored at 8° C., 29 days",1.35 µg/mL
same,Stability of Plant-Derived Cannabinoid Compounds in AB Red,"stored at 8° C., 30 days",1.31 µg/mL
same,Stability of Plant-Derived Cannabinoid Compounds in AB Red,"stored at 8° C., 60 days",1.32 µg/mL
same,Stability of Plant-Derived Cannabinoid Compounds in AB Red,"stored at 8° C., 90 days",1.34 µg/mL
same,Stability of Plant-Derived Cannabinoid Compounds in AB Red,"stored at 8° C., 120 days",1.30 µg/mL
same,Stability of Plant-Derived Cannabinoid Compounds in AB Red,"stored at 8° C., 150 days",1.34 µg/mL
same,Stability of Plant-Derived Cannabinoid Compounds in AB Red,"stored at 8° C., 180 days",1.30 µg/mL
same,Stability of Plant-Derived Cannabinoid Compounds in AB Red,"stored at 8° C., 210 days",1.33 µg/mL
same,Stability of Plant-Derived Cannabinoid Compounds in AB Red,"stored at 8° C., 240 days",1.32 µg/mL
same,Stability of Plant-Derived Cannabinoid Compounds in AB Red,"stored at 8° C., 270 days",1.33 µg/mL
same,Stability of Plant-Derived Cannabinoid Compounds in AB Red,"stored at 8° C., 300 days",1.30 µg/mL
same,Stability of Plant-Derived Cannabinoid Compounds in AB Red,"stored at 8° C., 330 days",1.34 µg/mL
same,Stability of Plant-Derived Cannabinoid Compounds in AB Red,"stored at 8° C., 360 days",1.31 µg/mL
same,Stability of Plant-Derived Cannabinoid Compounds in AB Red,"stored at 8° C., 390 days",1.29 µg/mL
same,Stability of Plant-Derived Cannabinoid Compounds in AB Red,"stored at 8° C., 420 days",1.29 µg/mL
same,Stability of Plant-Derived Cannabinoid Compounds in AB Red,"stored at 8° C., 450 days",1.31 µg/mL
same,Stability of Plant-Derived Cannabinoid Compounds in AB Red,"stored at 8° C., 480 days",1.28 µg/mL
same,Stability of Plant-Derived Cannabinoid Compounds in AB Red,"stored at 8° C., 510 days",1.25 µg/mL
same,Stability of Plant-Derived Cannabinoid Compounds in AB Red,"stored at 8° C., 540 days",1.26 µg/mL
same,Stability of Plant-Derived Cannabinoid Compounds in AB Red,"stored at 8° C., 570 days",1.24 µg/mL
same,Stability of Plant-Derived Cannabinoid Compounds in AB Red,"stored at 21-25° C., 0 days",1.35 µg/mL
same,Stability of Plant-Derived Cannabinoid Compounds in AB Red,"stored at 21-25° C., 1 days",1.34 µg/mL
same,Stability of Plant-Derived Cannabinoid Compounds in AB Red,"stored at 21-25° C., 2 days",1.30 µg/mL
same,Stability of Plant-Derived Cannabinoid Compounds in AB Red,"stored at 21-25° C., 3 days",1.32 µg/mL
same,Stability of Plant-Derived Cannabinoid Compounds in AB Red,"stored at 21-25° C., 5 days",1.36 µg/mL
same,Stability of Plant-Derived Cannabinoid Compounds in AB Red,"stored at 21-25° C., 8 days",1.36 µg/mL
same,Stability of Plant-Derived Cannabinoid Compounds in AB Red,"stored at 21-25° C., 9 days",1.35 µg/mL
same,Stability of Plant-Derived Cannabinoid Compounds in AB Red,"stored at 21-25° C., 10 days",1.33 µg/mL
same,Stability of Plant-Derived Cannabinoid Compounds in AB Red,"stored at 21-25° C., 11 days",1.33 µg/mL
same,Stability of Plant-Derived Cannabinoid Compounds in AB Red,"stored at 21-25° C., 12 days",1.33 µg/mL
same,Stability of Plant-Derived Cannabinoid Compounds in AB Red,"stored at 21-25° C., 15 days",1.30 µg/mL
same,Stability of Plant-Derived Cannabinoid Compounds in AB Red,"stored at 21-25° C., 16 days",1.36 µg/mL
same,Stability of Plant-Derived Cannabinoid Compounds in AB Red,"stored at 21-25° C., 17 days",1.35 µg/mL
same,Stability of Plant-Derived Cannabinoid Compounds in AB Red,"stored at 21-25° C., 18 days",1.36 µg/mL
same,Stability of Plant-Derived Cannabinoid Compounds in AB Red,"stored at 21-25° C., 19 days",1.31 µg/mL
same,Stability of Plant-Derived Cannabinoid Compounds in AB Red,"stored at 21-25° C., 22 days",1.34 µg/mL
same,Stability of Plant-Derived Cannabinoid Compounds in AB Red,"stored at 21-25° C., 23 days",1.36 µg/mL
same,Stability of Plant-Derived Cannabinoid Compounds in AB Red,"stored at 21-25° C., 24 days",1.30 µg/mL
same,Stability of Plant-Derived Cannabinoid Compounds in AB Red,"stored at 21-25° C., 25 days",1.35 µg/mL
same,Stability of Plant-Derived Cannabinoid Compounds in AB Red,"stored at 21-25° C., 26 days",1.32 µg/mL
same,Stability of Plant-Derived Cannabinoid Compounds in AB Red,"stored at 21-25° C., 29 days",1.33 µg/mL
same,Stability of Plant-Derived Cannabinoid Compounds in AB Red,"stored at 21-25° C., 30 days",1.34 µg/mL
same,Stability of Plant-Derived Cannabinoid Compounds in AB Red,"stored at 21-25° C., 60 days",1.28 µg/mL
same,Stability of Plant-Derived Cannabinoid Compounds in AB Red,"stored at 21-25° C., 90 days",1.34 µg/mL
same,Stability of Plant-Derived Cannabinoid Compounds in AB Red,"stored at 21-25° C., 120 days",1.34 µg/mL
same,Stability of Plant-Derived Cannabinoid Compounds in AB Red,"stored at 21-25° C., 150 days",1.28 µg/mL
same,Stability of Plant-Derived Cannabinoid Compounds in AB Red,"stored at 21-25° C., 180 days",1.30 µg/mL
same,Stability of Plant-Derived Cannabinoid Compounds in AB Red,"stored at 21-25° C., 210 days",1.33 µg/mL
same,Stability of Plant-Derived Cannabinoid Compounds in AB Red,"stored at 21-25° C., 240 days",1.31 µg/mL
same,Stability of Plant-Derived Cannabinoid Compounds in AB Red,"stored at 21-25° C., 270 days",1.27 µg/mL
same,Stability of Plant-Derived Cannabinoid Compounds in AB Red,"stored at 21-25° C., 300 days",1.27 µg/mL
same,Stability of Plant-Derived Cannabinoid Compounds in AB Red,"stored at 21-25° C., 330 days",1.28 µg/mL
same,Stability of Plant-Derived Cannabinoid Compounds in AB Red,"stored at 21-25° C., 360 days",1.29 µg/mL
same,Stability of Plant-Derived Cannabinoid Compounds in AB Red,"stored at 21-25° C., 390 days",1.26 µg/mL
same,Stability of Plant-Derived Cannabinoid Compounds in AB Red,"stored at 21-25° C., 420 days",1.26 µg/mL
same,Stability of Plant-Derived Cannabinoid Compounds in AB Red,"stored at 21-25° C., 450 days",1.31 µg/mL
same,Stability of Plant-Derived Cannabinoid Compounds in AB Red,"stored at 21-25° C., 480 days",1.29 µg/mL
same,Stability of Plant-Derived Cannabinoid Compounds in AB Red,"stored at 21-25° C., 510 days",1.27 µg/mL
same,Stability of Plant-Derived Cannabinoid Compounds in AB Red,"stored at 21-25° C., 540 days",1.29 µg/mL
same,Stability of Plant-Derived Cannabinoid Compounds in AB Red,"stored at 21-25° C., 570 days",1.24 µg/mL
